The supplement of paper PMC8498969

Assays:
HEK293 [1] = experiment: cytotoxicity IC50 (ATP content, uninfected cells); higher = less cytotoxic; details: infection: none
HEK293 [2] = experiment: IC50 for inhibition of ZIKV NS1 production
Protocol: (§1)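 HEK293 cells in 1536-well plates were pre-treated with compound for 1 h, infected with ZIKV (MOI 1) for 24 h, and NS1 antigen (intra- plus extracellular) was measured by TR-FRET. Confirmation used 11-point 1:3 dilutions, and IC50 and maximal inhibition were fitted in GraphPad Prism.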

HEK293 [3] = experiment: maximal inhibition of ZIKV NS1 production (% inhibition); higher = stronger antiviral effect
Protocol: as §1

Structure (SMILES) | cytotoxicity IC50 (HEK293 [1]) [µM] | IC50 (HEK293 [2]) [µM] | maximal inhibition (HEK293 [3])
CC(=O)O[C@@]12CO[C@@H]1C[C@H](O)[C@@]1(C)C(=O)[C@H](O)C3=C(C)[C@@H](OC(=O)[C@H](O)[C@@H](NC(=O)OC(C)(C)C)c4ccccc4)C[C@@](O)([C@@H](OC(=O)c4ccccc4)[C@H]21)C3(C)C | > 100 | 50 | 66
CC(NCc1ccc2c(c1)nc(NC(=O)c1ccc(-c3cn[nH]c3)s1)n2CC(C)(C)O)C(C)(C)C (stereo not given) | > 100 | 9.6 | 101
CC(C)c1cnn2c(NCc3ccccc3)cc(N[C@@H](CO)[C@H](O)CO)nc12 | > 100 | 1.2 | 87
C[C@H]1CCC/C=C/[C@@H]2C[C@H](O)C[C@H]2[C@H](O)/C=C/C(=O)O1 | > 100 | 0.43 | 99
O=C1c2c(O)ccc(O)c2C(=O)c2c(NCCNCCO)ccc(NCCNCCO)c21 | 50 | 0.23 | 100
C[C@@H]1O[C@@H](O[C@H]2C[C@@H](O)[C@]3(CO)[C@H]4[C@H](O)C[C@]5(C)[C@@H](C6=CC(=O)OC6)CC[C@]5(O)[C@@H]4CC[C@]3(O)C2)[C@H](O)[C@H](O)[C@H]1O | 0.19 | 0.17 | 102
COc1ccc(OC)c(-c2nnc3ccc(-c4ccc(OC)c(O[C@@H]5CCOC5)c4)nn23)c1 | > 100 | 40 | 42
C1CCC(C(CC2CCCCN2)C2CCCCC2)CC1 (stereo not given) | 50 | 45 | 98
NC1(c2ccc(-c3nc4ccn5c(=O)[nH]nc5c4cc3-c3ccccc3)cc2)CCC1 | 4.4 | 23 | 103
CC(C)COCC(CN(Cc1ccccc1)c1ccccc1)N1CCCC1 (stereo not given) | > 100 | 43 | 55
CNC1CCC(N(Cc2cccc(-c3ccncc3)c2)C(=O)c2sc3ccccc3c2Cl)CC1 (stereo not given) | > 100 | 49 | 94
O[C@@H](CNC[C@H](O)[C@H]1CCc2cc(F)ccc2O1)[C@@H]1CCc2cc(F)ccc2O1 | > 100 | 24 | 94
CC[C@@H]1[C@@H](C)O[C@@](O)([C@@H](C)[C@H](O)[C@H](C)[C@H]2OC(=O)/C=C/C=C/[C@H](C)[C@@H]([C@@H](C)[C@@H](O)[C@H](C)[C@@]3(O)C[C@@H](O[C@H]4C[C@H](O)[C@H](O)[C@H](C)O4)[C@H](CC)[C@@H](C)O3)OC(=O)/C=C/C=C/[C@@H]2C)C[C@H]1O[C@H]1C[C@H](O)[C@H](O)[C@H](C)O1 | 1.5 | 3.9 | 100
Nc1cc(C(F)(F)F)c(-c2cc(N3CCOCC3)nc(N3CCOCC3)n2)cn1 | 2.3 | 4.2 | 74
Cc1nc2cnc3ccc(C#Cc4cccnc4)cc3c2n1-c1ccc(C(C)(C)C#N)cc1 | 10 | 1.4 | 102
CCOC(=O)C1=C(C)NC(=S)NC1c1cccc(O)c1 (stereo not given) | > 100 | 50 | 89
C#C[C@]1(OC(C)=O)CC[C@H]2[C@@H]3CCC4=C/C(=N/O)CC[C@@H]4[C@H]3CC[C@@]21CC | > 100 | 43 | 48
Cc1[nH]nc2ccc(-c3cncc(OC[C@@H](N)Cc4ccccc4)c3)cc12 | 0.36 | 5.1 | 97
Cc1cnc(NC(=O)Nc2cc(Br)c(C)cc2OC[C@@H]2CNCCO2)cn1 | > 100 | 1.7 | 101
CC[C@@]1(O)C(=O)OCc2c1cc1n(c2=O)Cc2cc3cc(O)ccc3nc2-1 | > 100 | 0.047 | 100
COc1cccc2c1C(=O)c1c(O)c3c(c(O)c1C2=O)C[C@@](O)(C(=O)CO)C[C@@H]3O[C@H]1C[C@H](N)[C@@H](O)[C@H](C)O1 | > 100 | 0.49 | 84
COc1cc2nc(N3CCN(C(=O)c4ccco4)CC3)nc(N)c2cc1OC | 40 | 18 | 104
CC(C)C[C@H](NC(=O)[C@H](Cc1ccccc1)NC(=O)c1cnccn1)B(O)O | 0.04 | 0.025 | 95
CC1=CC(=O)c2ccccc2C1=O | 45 | 44 | 101
Clc1ccc(CCC(Cn2ccnc2)Sc2c(Cl)cccc2Cl)cc1 (stereo not given) | 16 | 39 | 97
COCC[n+]1c2c(n(Cc3cnccn3)c1C)C(=O)c1ccccc1C2=O | 0.03 | 0.018 | 104
Cn1c2ccccc2c2c3c(c4c5ccccc5n(CCC#N)c4c21)CNC3=O | 20 | 0.94 | 82
O=C1C(Cl)=C(NCCN2CCOCC2)C(=O)c2ncccc21 | 20 | 16 | 104

Structure (SMILES) | cytotoxicity IC50 (HEK293 [1]) [µM] | IC50 (HEK293 [2]) [µM] | maximal inhibition (HEK293 [3])
Cc1ccc(NC(=O)c2ccc(CN3CCN(C)CC3)cc2)cc1Nc1nccc(-c2cccnc2)n1 | 41 | 60 | 64
COc1cc([C@@H]2c3cc4c(cc3[C@H](O)[C@H]3COC(=O)[C@@H]23)OCO4)cc(OC)c1OC | > 100 | 2.6 | 68
[O-][n+]1ccccc1SSc1cccc[n+]1[O-] | 0.16 | 1.4 | 98
Cc1ccc(C(=O)N(CCCN)[C@@H](c2nc3cc(Cl)ccc3c(=O)n2Cc2ccccc2)C(C)C)cc1 | 37 | 0.067 | 98
NCC(=O)Nc1ccc(-n2nc(C(F)(F)F)cc2-c2ccc3c(ccc4ccccc43)c2)cc1 | 10 | 0.99 | 106
Nc1ccc(-c2ccc3ncc4ccc(=O)n(-c5cccc(C(F)(F)F)c5)c4c3c2)cn1 | > 100 | 0.72 | 90
CCc1c2c(nc3ccc(O)cc13)-c1cc3c(c(=O)n1C2)COC(=O)[C@]3(O)CC | > 100 | 0.011 | 61
Cc1ccccc1C(=O)c1ccc(Nc2ccc(Br)cc2N)cc1Cl | > 100 | 40 | 68
CCOC(=O)N1CCN(/[N+]([O-])=N/Oc2ccc([N+](=O)[O-])cc2C#N)CC1 | > 100 | 4.5 | 74
NC(=O)Nc1cc(-c2cccc(F)c2)sc1C(=O)N[C@H]1CCCNC1 | > 100 | 0.37 | 99
C[C@@H](Oc1cc(-n2cnc3ccc(CN4CCN(C)CC4)cc32)sc1C(N)=O)c1ccccc1C(F)(F)F | > 100 | 14 | 98
Nc1c2ccccc2nc2ccccc12 | 100 | 21 | 102
C[C@]12O[C@H](C[C@]1(O)CO)n1c3ccccc3c3c4c(c5c6ccccc6n2c5c31)CNC4=O | 15 | 1.7 | 58
OC[C@H]1O[C@@H](n2cnc3c(S)ncnc32)[C@H](O)[C@@H]1O | 4.1 | 8 | 99
OC(c1cc(C(F)(F)F)nc2c(C(F)(F)F)cccc12)C1CCCCN1 (stereo not given) | > 100 | 18 | 97
CN(Cc1cnc2nc(N)nc(N)c2n1)c1ccc(C(=O)N[C@@H](CCC(=O)O)C(=O)O)cc1 | 0.24 | 0.46 | 95
CCc1nc(N)nc(N)c1-c1ccc(Cl)cc1 | 14 | 45 | 88
Cc1n[nH]c2ccc(-c3cncc(OC[C@@H](N)Cc4c[nH]c5ccccc45)c3)cc12 | > 100 | 8.5 | 103
O=C1[C@H](Cc2ccc(O)cc2)N2C(=O)CCN(C(=O)NCc3ccccc3)[C@H]2CN1Cc1cccc2ccccc12 | > 100 | 13 | 103
O=C(Nc1ccc([N+](=O)[O-])cc1Cl)c1cc(Cl)ccc1O | 3.3 | 8.3 | 102
CO[C@H]1C(=O)[C@]2(C)[C@@H](OC)C[C@H]3OC[C@@]3(OC(C)=O)[C@H]2[C@H](OC(=O)c2ccccc2)[C@]2(O)C[C@H](OC(=O)[C@H](O)[C@@H](NC(=O)OC(C)(C)C)c3ccccc3)C(C)=C1C2(C)C | > 100 | 1.8 | 68
CN[C@@H]1C[C@H]2O[C@@](C)([C@@H]1OC)n1c3ccccc3c3c4c(c5c6ccccc6n2c5c31)C(=O)N[C@H]4O | 100 | 0.76 | 96
CC[C@@]1(O)C(=O)OCc2c1cc1n(c2=O)Cc2cc3ccccc3nc2-1 | > 100 | 0.026 | 82
COC[C@H](NC(=O)c1cnc(C)s1)C(=O)N[C@@H](COC)C(=O)N[C@@H](Cc1ccccc1)C(=O)[C@@]1(C)CO1 | 0.72 | 0.32 | 100
COc1c(C)c2c(c(O)c1C/C=C(\C)CCC(=O)O)C(=O)OC2 | > 100 | 0.54 | 106
C[C@@]12C(=O)OC(=O)[C@]1(C)[C@H]1CC[C@@H]2O1 | > 100 | 5.5 | 100
CC(C)C[C@H](NC(=O)CNC(=O)c1cc(Cl)ccc1Cl)B1OC(=O)C(CC(=O)O)(CC(=O)O)O1 | 1.6 | 0.2 | 94
